Experimental data taken from publication PMC12586182 (Frontiers in Oncology, 2025).

Columns and labels:
[1] = molecular target: activated B-RAF (Homo sapiens, UniProt P15056); assay: Surface plasmon resonance binding (Biacore 1S+); settings: SPR, B-RAF
[2] = molecular target: biotinylated, inactive MEK1 (Homo sapiens, UniProt Q02750); assay: Surface plasmon resonance binding (Biacore 1S+); settings: SPR
Chain of biotinylated, inactive MEK1 (Q02750 whole entry): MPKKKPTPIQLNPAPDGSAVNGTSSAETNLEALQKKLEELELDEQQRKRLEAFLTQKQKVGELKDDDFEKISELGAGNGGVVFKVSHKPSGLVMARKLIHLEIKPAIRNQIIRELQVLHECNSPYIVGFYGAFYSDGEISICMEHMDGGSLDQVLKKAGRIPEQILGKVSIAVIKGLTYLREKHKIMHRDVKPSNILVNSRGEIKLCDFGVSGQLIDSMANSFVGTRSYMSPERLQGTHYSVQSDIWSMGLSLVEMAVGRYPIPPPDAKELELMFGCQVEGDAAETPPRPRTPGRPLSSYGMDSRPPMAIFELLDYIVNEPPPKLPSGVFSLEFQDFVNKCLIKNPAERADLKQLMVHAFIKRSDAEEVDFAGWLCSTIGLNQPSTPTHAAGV

Chain of activated B-RAF (P15056 whole entry): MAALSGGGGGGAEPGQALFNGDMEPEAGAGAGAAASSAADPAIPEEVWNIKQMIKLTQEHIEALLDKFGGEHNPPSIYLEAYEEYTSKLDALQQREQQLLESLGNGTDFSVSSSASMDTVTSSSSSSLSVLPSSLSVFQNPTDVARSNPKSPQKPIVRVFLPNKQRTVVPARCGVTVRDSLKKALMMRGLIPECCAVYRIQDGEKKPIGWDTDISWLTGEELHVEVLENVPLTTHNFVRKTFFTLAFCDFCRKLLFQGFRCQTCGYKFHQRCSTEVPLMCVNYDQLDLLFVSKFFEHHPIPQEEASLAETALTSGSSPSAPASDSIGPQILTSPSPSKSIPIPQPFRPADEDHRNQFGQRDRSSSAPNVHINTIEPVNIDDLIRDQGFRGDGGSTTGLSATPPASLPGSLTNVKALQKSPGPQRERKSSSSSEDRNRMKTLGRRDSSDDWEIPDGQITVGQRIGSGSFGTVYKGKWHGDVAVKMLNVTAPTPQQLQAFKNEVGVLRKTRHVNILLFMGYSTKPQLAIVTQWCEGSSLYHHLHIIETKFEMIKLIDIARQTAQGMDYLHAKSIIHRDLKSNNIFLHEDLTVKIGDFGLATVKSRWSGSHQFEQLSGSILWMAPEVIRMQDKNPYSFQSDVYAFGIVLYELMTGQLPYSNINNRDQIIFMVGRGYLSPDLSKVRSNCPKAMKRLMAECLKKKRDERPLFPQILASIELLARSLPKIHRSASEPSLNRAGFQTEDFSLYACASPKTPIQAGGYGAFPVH

SMILES | log (kd) [1] | log(ka) [1] | t1/2 [1] [h] | log (kd) [2] | log(ka) [2] | t1/2 [2] [h]
COC(=O)N[C@@H](C)CNc1nccc(-c2cn(C(C)C)nc2-c2cc(Cl)cc(NS(C)(=O)=O)c2F)n1 [encorafenib] | -4.40 | 5.36 | 4.8056 | – | – | –
CC(=O)Nc1cccc(-n2c(=O)n(C3CC3)c(=O)c3c(Nc4ccc(I)cc4F)n(C)c(=O)c(C)c32)c1 [trametinib] | – | – | – | -3.87 | 5.34 | 1.428
